Data: patent US20080300288A1, “Alkenyldiarylmethanes, Fused Analogs And Syntheses Thereof” (PURDUE RESEARCH FOUNDATION, priority 2005, published 2008)
pEC50, pIC50: −log10 of the molar value. Like-named read-outs stand apart in the source and are kept apart here.

Assays:
[1] = Cytotoxicity in mock-infected MT-4 cells; format: cell-based; conditions: human, uninfected (mock-infected) MT-4 cells
HIV-2 strain (ROD) = test: MTT assay, HIV-2 strain (ROD) in MT-4 cells; format: cell-based; conditions: Human immunodeficiency virus 2, MT4; HIV-2ROD in MT-4 cells; read-out: EC50 HIV-2-ROD (inhibition of cytopathicity)
[2] = molecular target: T1, recombinant HIV-1 RT enzyme (p66/51 dimer) (Human immunodeficiency virus type 1 group M subtype B, UniProt P04585); test: RT inhibition assay, incorporation of [32P]GTP into poly(rC)/oligo(dG); format: biochemical
T1 construct: recombinant HIV-1 RT enzyme (p66/51 dimer)
Protocol: RT Inhibition Assay. Analysis of the effects of the compounds on recombinant HIV-1 RT enzyme (p66/51 dimer) was performed as previously described. See, Buckheit, R. W. J.; Fliakas-Boltz, V.; Decker, W. D.; Robertson, J. L.; Stup, T. L.; Pyle, C. […] Antiviral Res. 1995, 26, 117-132, the disclosure of which is incorporated herein by reference. Briefly, inhibition of purified recombinant reverse transcriptase enzyme was measured by the incorporation of [^32P]GTP into poly(rC)/oligo(dG) (rCdG) homopolymer template primers.

HIV-1 strain IIIB = test: MTT assay, HIV-1 strain IIIB in MT-4 cells; format: cell-based; conditions: Human immunodeficiency virus 1, MT4; HIV-1IIIB in MT-4 cells; read-out: EC50 HIV-1IIIB (inhibition of cytopathicity)
[3] = Cytotoxicity in mock-infected CEM-SS cells; format: cell-based; conditions: human, uninfected (mock-infected) CEM-SS cells
Protocol: (§1) In Vitro Antiviral Assays. Evaluation of the antiviral activity of compounds against HIV-1RF infection in CEM-SS cells was performed using the MTS cytoprotection assay as previously described. See, Rice, W. G.; Bader, J. P. Discovery and in Vitro Development of AIDS Antiviral Drugs as Biopharmaceuticals. Adv. Pharmacol. (San Diego) 1995, 6, 389-438, the disclosure of which is incorporated herein by reference. […] See, Pauwels, R.; Balzarini, J.; Baba, M.; Snoeck, R.; Schols, […].; De […]. Rapid and Automated Tetrazolium-based Colorimetric Assay for Detection of Anti-HIV Compounds. J. Virol. Methods 1988, 20, 309-321, the disclosure of which is incorporated herein by reference.

[4] = In vitro hydrolytic stability study in rat plasma; format: in vitro ADME; conditions: rat plasma in vitro, half-life
Protocol: NMR spectra were obtained at 300 MHz (^1H) and 75 MHz (^13C) in CDCl3 using CHCl3 as internal standard. Flash chromatography was performed with 230-400 mesh silica gel. […] Melting points are uncorrected. Unless otherwise stated, chemicals and solvents were of reagent grade and used as obtained from commercial sources without further purification. Tetrahydrofuran (THF) was freshly distilled from sodium/benzophenone ketyl radical prior to use. Dichloromethane was freshly distilled from calcium hydride prior to use. Lyophilized rat plasma (lot 052K7609) was obtained from Sigma Chemical Co., St. Louis, Mo. All yields given refer to isolated yields.
In vitro Hydrolytic Stability Study in Rat Plasma. […] See, Silvestri, M. A.; Nagarajan, M.; De Clercq, E.; Pannecouque, C.; Cushman, M. Design, Synthesis, Anti-HIV Activities, and Metabolic Stabilities of Alkenyldiarylmethane (ADAM) Non-nucleoside Reverse Transcriptase Inhibitors. J. Med. Chem. 2004, 47, 3149-3162, the disclosure of which is incorporated herein by reference.

HIV-1RF = test: MTS cytoprotection assay, HIV-1RF infection in CEM-SS cells; format: cell-based; conditions: Human immunodeficiency virus 1; HIV-1RF in CEM-SS cells; read-out: EC50 HIV-1RF (inhibition of cytopathicity)
Protocol: In Vitro Antiviral Assays. Evaluation of the antiviral activity of compounds against HIV-1RF infection in CEM-SS cells was performed using the MTS cytoprotection assay as previously described. See, Rice, W. G.; Bader, J. P. Discovery and in Vitro Development of AIDS Antiviral Drugs as Biopharmaceuticals. Adv. Pharmacol. (San Diego) 1995, 6, 389-438, the disclosure of which is incorporated herein by reference. […] See, Pauwels, R.; Balzarini, J.; Baba, M.; Snoeck, R.; Schols, D.; Herdewijn, P.; Desmyter, J.; De Clercq, E. Rapid and Automated Tetrazolium-based Colorimetric Assay for Detection of Anti-HIV Compounds. J. Virol. Methods 1988, 20, 309-321, the disclosure of which is incorporated herein by reference.

MT-4 cells = test: Cytotoxicity in mock-infected MT-4 cells; format: cell-based; conditions: read-out: CC50 MT-4 Cells (50% cytotoxic concentration)
CEM-SS cells = test: Cytotoxicity in mock-infected CEM-SS cells; format: cell-based; conditions: read-out: CC50 CEM-SS Cells (50% cytotoxic concentration)
Protocol: as §1

Structure (SMILES) | CC50 [1] [µM] | pEC50 (HIV-2 strain (ROD)) | pIC50 [2] | pEC50 (HIV-1 strain IIIB) | CC50 [3] [µM] | Rat Plasma tp1/2 (min ± SD) [4] [min] | pEC50 (HIV-1RF) | melting point [°C] | CC50 (MT-4 cells) [µM] | pIC50 ([2]; poly(rC)•oligo(dG) as the template primer, read-out: IC50 (inhibitory activity vs HIV-1 reverse transcriptase)) | CC50 (CEM-SS cells) [µM]
COC(=O)CCC/C=C(/c1ccc(OC)c(C(=O)OC)c1)c1cc(C)c2oc(=O)n(C)c2c1 [Compound 62, (Z)-5-[1-(3,7-Dimethyl-2-oxo-2,3-dihydrobenzoxazol-5-yl)-5-methoxycarbonyl-pent-1-enyl]-2-methoxy-benzoic Acid Methyl Ester] | 115 | < 3.94 | 6.00 | 5.38 | > 13.5 | 0.34 ± 0.15 | 5.51 | 134 to 135 |  |  | 
COC(=O)CCCC=C(c1cc(C)c2oc(=O)n(C)c2c1)c1cc(C)c2oc(=O)n(C)c2c1 [Compound 66, 6,6-Bis-(3,7-dimethyl-2-oxo-2,3-dihydrobenzoxazol-5-yl)-hex-5-enoic Acid Methyl Ester] | 32.5 | < 4.49 | 6.30 | 6.66 | 31 | 0.59 ± 0.01 | 6.21 |  |  |  | 
COC(=O)CCC/C=C(\c1cccc(C#N)c1)c1cc(C)c2onc(OC)c2c1 [Compound 20, (E)-6-(3-Cyanophenyl)-6-(3-methoxy-7-methylbenzo[d]isoxazol-5-yl)-hex-5-enoic Acid Methyl Ester] | 4.69 | < 5.25 | 5.24 | < 5.69 | 0.8 | 1.16 ± 0.08 | < 4.00 |  |  |  | 
COC(=O)CCC/C=C(\c1cc(F)cc(C(F)(F)F)c1)c1cc(C)c2oc(=O)n(C)c2c1 [Compound 63, (Z)-6-(3,7-Dimethyl-2-oxo-2,3-dihydrobenzoxazol-5-yl)-6-(3-fluoro-5-trifluoromethylphenyl)-hex-5-enoic Acid Methyl Ester] | 51 | < 4.22 | < 4.00 | 5.36 | 15 | 3.06 ± 0.32 | < 4.00 |  |  |  | 
COC(=O)CCC/C=C(/c1cc(C)c2on(C)c(=O)c2c1)c1cc(C)c2oc(=O)n(C)c2c1 [Compound 65, (Z)-6-(2,7-Dimethyl-3-oxo-2,3-dihydro-benzo[d]isoxazol-5-yl)-6-(3,7-dimethyl-2-oxo-2,3-dihydro-benzoxazol-5-yl)-hex-5-enoic Acid Methyl Ester] | 36.5 | < 4.44 | 4.31 | 5.35 | 11.1 | 0.46 ± 0.03 | 5.75 |  |  |  | 
COC(=O)CCC/C=C(\c1cccc(C#N)c1)c1cc(Cl)c(OC)c(C(=O)OC)c1 [Compound 17, (E)-3-Chloro-5-[1-(3-cyanophenyl)-5-methoxycarbonyl-pent-1-enyl]-2-methoxybenzoic Acid Methyl Ester] | 213 | < 3.65 | 6.12 | 5.07 | 20.2 | 0.44 ± 0.05 | 5.15 |  |  |  | 
COC(=O)CCCC=C(c1cc(C)c(OC)c(C(=O)OC)c1)c1cc(C)c(OC)c(C(=O)OC)c1 [Compound 1, Methyl 4′,4″-Dimethoxy-3′,3″-di(methoxycarbonyl)-5′,5″-dimethyl-6,6-diphenyl-5-hexenoate] |  |  |  | 6.00 |  | 0.76 ± 0.04 | 6.60 |  | 6.1 | 6.00 | 6
COC(=O)CCC/C=C(/c1cc(F)cc(C(F)(F)F)c1)c1cc(C)c(OC)c(C(=O)OC)c1 [Compound 15, (E)-5-[1-(3-Fluoro-5-trifluoromethylphenyl)-5-methoxycarbonyl-pent-1-enyl]-2-methoxy-3-methylbenzoic Acid Methyl Ester] | 113 | 4.98 | 4.26 | 5.60 | 9.3 | 4.35 ± 0.41 | 5.14 |  |  |  | 
COC(=O)CCC/C=C(\c1cc(C)c(OC)c(C(=O)OC)c1)c1cc(C)c2oc(=O)n(C)c2c1 [Compound 64, (E)-5-[1-(3,7-Dimethyl-2-oxo-2,3-dihydro-benzoxazol-5-yl)-5-methoxycarbonyl-pent-1-enyl]-2-methoxy-3-methylbenzoic Acid Methyl Ester] |  | < 4.77 | 7.70 | 7.05 |  | 1.30 ± 0.09 | 7.52 |  | 16.9 |  | 5.1
